In patent US6949648B2, “Condensed pyrazole derivatives, process for producing the same and use thereof” (Takeda Pharmaceutical Company Limited, priority 2000, dated 2005):

Point of comparison: `Cc1nn(-c2ccccn2)c2nc3cc(F)c(Cl)cc3c(Cl)c12` [Example 2-98, 4,6-Dichloro-7-fluoro-3-methyl-1-(2-pyridinyl)-1H-pyrazolo[3,4-b]quinoline], melting point 211 °C. Against it:
- Cc1cccc(-n2nc(C)c3c(=O)c4cc(F)c(F)cc4[nH]c32)n1 [Example 2-209, 6,7-Difluoro-3-methyl-1-(6-methyl-2-pyridinyl)-1,9-dihydro-4H-pyrazolo[3,4-b]quinolin-4-one] — higher, 301 to 302 °C
- O=c1c2cnn(-c3ccccn3)c2[nH]c2cccc(F)c12 [Example 2-163, 5-Fluoro-1-(2-pyridinyl)-1,9-dihydro-4H-pyrazolo[3,4-b]quinolin-4-one] — higher, 278 to 281 °C
- Cc1nn(-c2nccs2)c2[nH]c3ccccc3c(=O)c12 [Example 2-151, 3-Methyl-1-(1,3-thiazol-2-yl)-1,9-dihydro-4H-pyrazolo[3,4-b]quinolin-4-one] — higher, 226 to 227 °C
- Cc1nn(-c2ccccn2)c2nc(O)c3c(c12)CCC3 [Example 1-28, 1-Methyl-3-(2-pyridinyl)-3,6,7,8-tetrahydrocyclopenta[d]pyrazolo[3,4-b]pyridin-5-ol] — higher, 255 to 256 °C
- Cc1nn(-c2ccccn2)c2nc3ccc(F)c(F)c3c(Cl)c12 [Example 2-88, 4-Chloro-5,6-difluoro-3-methyl-1-(2-pyridinyl)-1H-pyrazolo[3,4-b]quinoline] — higher, 240 to 242 °C
- Cc1nn(-c2ncccn2)c2nc3ccccc3c(N)c12.Cl — higher, 287 to 290 °C
- Cc1nn(-c2ccccn2)c2[nH]c3cccc(Cl)c3c(=O)c12 [Example 2-69, 5-Chloro-3-methyl-1-(2-pyridinyl)-1,9-dihydro-4H-pyrazolo[3,4-b]quinolin-4-one] — higher, 212 to 213 °C
- O=c1c2ccccc2[nH]c2c1c(C(F)(F)F)nn2-c1ccccn1 [Example 2-167, 1-(2-Pyridinyl)-3-trifluoromethyl-1,9-dihydro-4H-pyrazolo[3,4-b]quinolin-4-one] — higher, 231 to 233 °C
- Cc1ccc(-n2nc(C)c3c(N)c4cccc(C)c4nc32)nc1 [Example 2-132, 3,8-Dimethyl-1-(5-methyl-2-pyridinyl)-1H-pyrazolo[3,4-b]quinolin-4-ylamine] — higher, 257 to 260 °C
- COC(=O)c1ccc2nc3c(c(C)nn3-c3ccccn3)c(Cl)c2c1 [Example 2-63, Methyl 4-chloro-3-methyl-1-(2-pyridinyl)-1H-pyrazolo[3,4-b]quinoline-6-carboxylate] — lower, 199 to 200 °C
- Cc1nc2c(c(C)nn2-c2ccccn2)c(O)c1Cc1ccccc1 [Example 1-20, 5-Benzyl-3,6-dimethyl-1-(2-pyridinyl)-1H-pyrazolo[3,4-b]pyridin-4-ol] — lower, 181 to 182 °C
- Cc1nn(-c2ccccn2)c2[nH]c3cccc(C(=O)O)c3c(=O)c12 [Example 2-62, 3-Methyl-4-oxo-1-(2-pyridinyl)-4,9-dihydro-1H-pyrazolo[3,4-b]quinoline-5-carboxylic acid] — higher, 303 to 306 °C
- Cc1nn(-c2ccccn2)c2[nH]c3c(F)cccc3c(=O)c12 [Example 2-85, 8-Fluoro-3-methyl-1-(2-pyridinyl)-1,9-dihydro-4H-pyrazolo[3,4-b]quinolin-4-one] — higher, 241 °C
- Clc1c2ccccc2nc2c1cnn2-c1ccccn1 [Example 2-157, 4-Chloro-1-(2-pyridinyl)-1H-pyrazolo[3,4-b]quinoline] — lower, 153 to 156 °C
- CCCSc1c2ccccc2nc2c1c(C)nn2-c1ccccn1 [Example 2-27, 3-Methyl-4-(propylsulfanyl)-1-(2-pyridinyl)-1H-pyrazolo[3,4-b]quinoline] — lower, 91 to 93 °C
- Cc1nn(-c2ccccn2)c2nc3ncccc3c(Cl)c12 [Example 2-196, 4-Chloro-3-methyl-1-(2-pyridinyl)-1H-pyrazolo[3,4-b][1, 8]naphthyridine] — lower, 204 to 205 °C
- Cc1nn(-c2ccccn2)c2nc3ccsc3c(Cl)c12 [Example 2-155, 4-Chloro-3-methyl-1-(2-pyridinyl)-1H-pyrazolo[3,4-b]thieno[2,3-e]pyridine] — higher, 230 to 231 °C
- Cc1nn(-c2ccccn2)c2nc3cc(Cl)c(F)cc3c(Cl)c12 [Example 2-96, 4,7-Dichloro-6-fluoro-3-methyl-1-(2-pyridinyl)-1H-pyrazolo[3,4-b]quinoline] — higher, 214 to 215 °C
- Cc1nn(-c2ccccn2)c2[nH]c3cc(Cl)ccc3c(=O)c12 [Example 2-74, 7-Chloro-3-methyl-1-(2-pyridinyl)-1,9-dihydro-4H-pyrazolo[3,4-b]quinolin-4-one] — higher, 274 to 275 °C
- Cc1c(O)nc2c(c(C)nn2-c2ccccn2)c1C [Example 1-24, 3,4,5-Trimethyl-1-(2-pyridinyl)-1H-pyrazolo[3,4-b]pyridin-6-ol] — higher, 226 to 228 °C
- Cc1nn(-c2ccccn2)c2[nH]c3cc(Cl)c(F)cc3c(=O)c12 [Example 2-97, 7-Chloro-6-fluoro-3-methyl-1-(2-pyridinyl)-1,9-dihydro-4H-pyrazolo[3,4-b]quinolin-4-one] — higher, 264 to 265 °C
- Fc1cccc2nc3c(cnn3-c3ccccn3)c(Cl)c12 [Example 2-162, 4-Chloro-5-fluoro-1-(2-pyridinyl)-1H-pyrazolo[3,4-b]quinoline] — lower, 173 to 176 °C
- Cc1cc(O)c2c(C)nn(-c3ccccn3)c2n1 [Example 1-18, 3,6-Dimethyl-1-(2-pyridinyl)-1H-pyrazolo[3,4-b]pyridin-4-ol] — lower, 175 to 176 °C
- COC(=O)c1ccc2[nH]c3c(c(C)nn3-c3ccccn3)c(=O)c2c1 [Example 2-64, Methyl 3-methyl-4-oxo-1-(2-pyridinyl)-4,9-dihydro-1H-pyrazolo[3,4-b]quinoline-6-carboxylate] — higher, 265 to 266 °C
- CCOC(=O)c1nn(-c2ccccn2)c2[nH]c3ccccc3c(=O)c12 [Example 2-180, Ethyl 4-oxo-1-(2-pyridinyl)-4,9-dihydro-1H-pyrazolo[3,4-b]quinoline-3-carboxylate] — lower, 183 to 186 °C
- Cc1nn(-c2ccncc2)c2nc3ccccc3c(N(C)C)c12 [Example 2-142, N,N-Dimethyl-N-[3-methyl-1-(4-pyridinyl)-1H-pyrazolo[3,4-b]quinolin-4-yl]amine] — lower, 155 to 156 °C
- Cc1nn(-c2ccccn2)c2[nH]c3ccc(Br)cc3c(=O)c12 [Example 2-87, 6-Bromo-3-methyl-1-(2-pyridinyl)-1,9-dihydro-4H-pyrazolo[3,4-b]quinolin-4-one] — higher, 240 to 242 °C
- Cc1nn(-c2ccccn2)c2nc3cc(F)c(F)cc3c(Cl)c12 [Example 2-90, 4-Chloro-6,7-difluoro-3-methyl-1-(2-pyridinyl)-1H-pyrazolo[3,4-b]quinoline] — lower, 175 to 176 °C
- Clc1ccc2nc3c(cnn3-c3ccccn3)c(Cl)c2c1 [Example 2-160, 4,6-Dichloro-1-(2-pyridinyl)-1H-pyrazolo[3,4-b]quinoline] — lower, 175 to 176 °C
- Cc1nn(-c2ccccn2)c2nc3ccc(Cl)cc3c(Cl)c12 [Example 2-70, 4,6-Dichloro-3-methyl-1-(2-pyridinyl)-1H-pyrazolo[3,4-b]quinoline] — higher, 233 to 235 °C
- Cc1nn(-c2nccs2)c2nc3ccccc3c(Cl)c12 [Example 2-149, 4-Chloro-3-methyl-1-(1,3-thiazol-2-yl)-1H-pyrazolo[3,4-b]quinoline] — lower, 208 to 209 °C
- Cc1nn(-c2ccccn2)c2nc3cc(Cl)c(Cl)cc3c(Cl)c12 [Example 2-75, 4,6,7-Trichloro-3-methyl-1-(2-pyridinyl)-1H-pyrazolo[3,4-b]quinoline] — higher, 213 to 214 °C
- Cc1nn(-c2ccccn2)c2ncc(C(=O)N(C)c3ccccc3)c(OCc3ccccc3)c12 [Example 1-17, 4-(Benzyloxy)-N,3-dimethyl-N-phenyl-1-(2-pyridinyl)-1H-pyrazolo[3,4-b]pyridine-5-carboxamide] — lower, 92 to 93 °C
- Cc1cccnc1-n1nc(C)c2c(N)c3c(C)cccc3nc21 [Example 2-124, 3,5-Dimethyl-1-(3-methyl-2-pyridinyl)-1H-pyrazolo[3,4-b]quinolin-4-ylamine] — higher, 271 to 274 °C
- NC(=O)Cc1nn(-c2ccccn2)c2[nH]c3ccccc3c(=O)c12 [Example 2-178, 2-[4-Oxo-1-(2-pyridinyl)-4,9-dihydro-1H-pyrazolo[3,4-b]quinolin-3-yl]acetamide] — higher, 302 to 305 °C
- Cc1cccc2[nH]c3c(c(C)nn3-c3ccccn3)c(=O)c12 [Example 2-31, 3,5-Dimethyl-1-(2-pyridinyl)-1,9-dihydro-4H-pyrazolo[3,4-b]quinolin-4-one] — lower, 183 to 186 °C
- Cc1nn(-c2cccc(Cl)n2)c2[nH]c3ccccc3c(=O)c12 [Example 2-110, 1-(6-Chloro-2-pyridinyl)-3-methyl-1,9-dihydro-4H-pyrazolo[3,4-b]quinolin-4-one] — higher, 251 to 253 °C
- COc1cc2[nH]c3c(c(C)nn3-c3ccccn3)c(=O)c2cc1OC [Example 2-48, 6,7-Dimethoxy-3-methyl-1-(2-pyridinyl)-1,9-dihydro-4H-pyrazolo[3,4-b]quinolin-4-one] — higher, 238 to 239 °C

For `Cc1nn(-c2ccncc2)c2[nH]c3ccccc3c(=O)c12` [Example 2-143, 3-Methyl-1-(4-pyridinyl)-1,9-dihydro-4H-pyrazolo[3,4-b]quinolin-4-one], the melting point was > 300 °C.
For `Cc1nn(-c2ccccn2)c2ncc(C(=O)Nc3ccc(F)cc3)c(O)c12` [Example 1-14, N-(4-Fluorophenyl)-4-hydroxy-3-methyl-1-(2-pyridinyl)-1H-pyrazolo[3,4-b]pyridine-5-carboxamide], the melting point was > 300 °C.
In the case of `Cc1nn(-c2ccccn2)c2[nH]c3ccc(C(=O)O)cc3c(=O)c12` [Example 2-65, 3-Methyl-4-oxo-1-(2-pyridinyl)-4,9-dihydro-1H-pyrazolo[3,4-b]quinoline-6-carboxylic acid], the melting point is reported as > 300 °C.
With `Cc1nn(-c2ccccn2)c2ncc(C(=O)Nc3ccc(F)c(F)c3)c(O)c12` [Example 1-15, N-(3,4-Difluorophenyl)-4-hydroxy-3-methyl-1-(2-pyridinyl)-1H-pyrazolo[3,4-b]pyridine-5-carboxamide] the melting point was > 300 °C.
